These are literature values, as cited in US4318905A, “Nonapeptide and decapeptide agonists of luteinizing hormone releasing hormone containing heterocyclic amino acid residues” (Syntex (U.S.A.) Inc., priority 1980, dated 1982).

For this series the following is noted: Gly in the 6-position replaced by a D-amino acid.
Consider [D-Phe^6 ]LHRH, for which the “activity relative to LH-RH” value is reported as “increased activity”.
Turning to [D-Ala^6 ]LHRH, the “activity relative to LH-RH” value is on record as “increased activity”.
Take [D-Trp^6 ]LHRH: the “activity relative to LH-RH” value is recorded as “increased activity”.
